Data from PMC6378654 (Journal of Medicinal Chemistry, 2019).
Read-outs that look alike come from different tables or passages of the source.

What was measured:
β2i = target: T1, β2i (Homo sapiens, UniProt P40306); experiment: ABPP assay with probe 97 in Raji cell lysates; type: biochemical; settings: for labeling of β2i by probe 97 after preincubation with inhibitor: LU-002i at 3 μM, LU-002c at high concentrations, Figure 4B
T1 sequence (P40306 40-273): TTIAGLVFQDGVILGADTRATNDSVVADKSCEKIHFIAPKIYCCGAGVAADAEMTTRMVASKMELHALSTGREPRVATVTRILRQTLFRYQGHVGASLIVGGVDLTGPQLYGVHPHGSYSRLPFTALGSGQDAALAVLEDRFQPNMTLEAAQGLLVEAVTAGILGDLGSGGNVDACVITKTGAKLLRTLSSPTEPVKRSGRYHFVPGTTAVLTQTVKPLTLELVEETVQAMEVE

[1] = target: T2, human proteasome subunit β2i (Homo sapiens, UniProt P40306); experiment: Competitive ABPP in Raji cell lysates; type: biochemical; settings: LU-002i 3 μM, LU-002c 0.3 μM, LU-102 1 μM, Figure 4B
T2 sequence (P40306 40-273): T1 sequence (P40306 40-273)

[2] = target: T3, human proteasome subunit β2c (Homo sapiens, UniProt Q99436); experiment: Competitive ABPP in Raji cell lysates; type: biochemical; settings: for IC50: read-out: Apparent IC50 β2c
T3 sequence (Q99436 44-277): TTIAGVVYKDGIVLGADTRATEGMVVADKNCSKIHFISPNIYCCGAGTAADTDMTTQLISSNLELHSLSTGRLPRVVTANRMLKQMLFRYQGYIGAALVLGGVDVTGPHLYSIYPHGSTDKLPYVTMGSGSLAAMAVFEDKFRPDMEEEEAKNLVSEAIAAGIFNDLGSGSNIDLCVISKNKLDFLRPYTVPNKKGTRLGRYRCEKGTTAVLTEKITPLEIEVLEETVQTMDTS

[3] = Solubility in aqueous solutions; type: physicochemical; settings: stated in words
[4] = tested on: human proteasome subunit β2c; experiment: Competitive ABPP in Raji cell lysates; type: biochemical

## CC(C)C[C@H](NC(=O)[C@H](Cc1ccccc1)N=[N+]=[N-])C(=O)N[C@@H](CC(C)C)C(=O)N[C@H](/C=C/S(C)(=O)=O)Cc1ccc(CN)cc1 [Compound 1, reference compound]
β2i
  labeling of β2i by probe 97 after preincubation with inhibitor: completely abolished

## CC(C)C[C@H](NC(=O)[C@H](Cc1ccccc1)N=[N+]=[N-])C(=O)N[C@@H](C)C(=O)N[C@H](/C=C/S(C)(=O)=O)Cc1ccc(CN)cc1 [Compound 4]
[1]
  β2i labeling by the three-probe mixture after inhibitor treatment: partially inhibited
[2]; Raji cell lysates, LU-002c 0.3 μM, LU-102 1 μM, Figure 4B
  β2c labeling by the three-probe mixture after inhibitor treatment: completely prevented
β2i
  labeling of β2i by probe 97 after preincubation with inhibitor: partially reduced

## COc1ccc(C[C@H](NC(=O)[C@H](C)NC(=O)CN2CCOCC2)C(=O)N[C@@H](CC2CCCC3CCCCC32)C(=O)[C@@]2(C)CO2)cc1 (stereo partly shown) [Compound 5]
[3]
  solubility in aqueous solutions: poorly soluble

## CC(C)C[C@H](NC(=O)c1cnccn1)C(=O)N[C@@H](CC(C)C)C(=O)N[C@H](/C=C/S(C)(=O)=O)Cc1ccc(CN)cc1 [Compound 7]
[2]; initial screening
  decreased potency for β2c compared to LU-102: 23 fold

## COC[C@H](NC(=O)[C@H](CC(C)C)NC(=O)c1cnc(C)s1)C(=O)N[C@H](/C=C/S(C)(=O)=O)Cc1ccc(CN)cc1 [Compound 20]
[4]; Raji cell extracts, wider range of concentrations (Table 2)
  selectivity for β2c over β2i: ≥ 27 fold
[4]; initial screening (Table 1)
  selectivity for β2c over β2i: 14 fold

## Cc1ncc(C(=O)N[C@@H](CC2CCCCC2)C(=O)N[C@@H](CC2CCCCC2)C(=O)N[C@H](/C=C/S(C)(=O)=O)Cc2ccc(CN)cc2)s1 [Compound 36]
[4]; initial screening (Table 1)
  selectivity for β2c over β2i: 10.5 fold

## COc1ccc(C[C@H](NC(=O)[C@H](C)NC(=O)CN2CCOCC2)C(=O)N[C@@H](CCC2CCCCC2)C(=O)[C@@]2(C)CO2)cc1 [Compound 39, Morp-Ala-Tyr(Me)-HomoCha-EK]
[2]; Raji cell lysates, wider range of final concentrations, Table 5
  IC50: 2.5 µM

## COc1ccc(C[C@H](NC(=O)[C@H](C)NC(=O)CN2CCOCC2)C(=O)N[C@@H](C[C@H]2CCCc3ccccc32)C(=O)[C@@]2(C)CO2)cc1 [Compound 68, Morp-Ala-Tyr(Me)-1-(R)-TetraNal-EK]
[2]; Raji cell lysates, Table 6
  IC50: > 100 µM

## COc1ccc(C[C@H](NC(=O)[C@H](C)NC(=O)CN2CCOCC2)C(=O)N[C@@H](C[C@@H]2CCCc3ccccc32)C(=O)[C@@]2(C)CO2)cc1 [Compound 71, Morp-Ala-Tyr(Me)-1-(S)-TetraNal-EK]
[2]; Raji cell lysates, Table 6
  IC50: > 100 µM

## COc1ccc(C[C@H](NC(=O)[C@H](C)NC(=O)CN2CCOCC2)C(=O)N[C@@H](C[C@H]2CCCC3CCCCC32)C(=O)[C@@]2(C)CO2)cc1 (stereo partly shown) [Compound 74, Morp-Ala-Tyr(Me)-1-DecAla-EK]
[2]; Raji cell lysates, Table 6
  IC50: > 100 µM

## COc1ccc(C[C@H](NC(=O)[C@H](C)NC(=O)CN2CCOCC2)C(=O)N[C@@H](C[C@@H]2CCCC3CCCCC32)C(=O)[C@@]2(C)CO2)cc1 (stereo partly shown) [Compound 77, Morp-Ala-Tyr(Me)-1-DecAla-EK]
[2]; Raji cell lysates, Table 6
  IC50: 28 µM

## COc1ccc(C[C@H](NC(=O)[C@H](C)NC(=O)CN2CCOCC2)C(=O)N[C@@H](C[C@H]2CCC[C@@H]3CCCC[C@@H]32)C(=O)[C@@]2(C)CO2)cc1 [Compound 86, Morp-Ala-Tyr(Me)-1-DecAla-EK]
[2]; Raji cell lysates, Table 6
  IC50: > 100 µM

## CC1=CC(C)=N/C1=C(/CCCCc1cn(CCOc2ccc(C[C@H](NC(=O)[C@H](C)NC(=O)CN3CCOCC3)C(=O)N[C@@H](CC3CCCC4CCCCC43)C(=O)[C@@]3(C)CO3)cc2)nn1)c1c(C)cc(C)n1B(F)F (stereo partly shown) [Compound 97, Morp-Ala-Tyr(O–C2H4-BODIPY(FL))-1-DecAla-EK]
β2i; final concentration of 3 μM, Figure 4A
  β2i labeling by ABP 97: selective
